Experimental data taken from patent US11252963B2, “Pesticidally active pyrazole derivatives” (SYNGENTA PARTICIPATIONS AG, priority 2017, dated 2022).
Like-named read-outs stand apart in the source and are kept apart here.

Key:
Assay type in all cases: in vivo
[1] = tested on: Diabrotica balteata (Corn root worm); test: Diabrotica balteata (Corn root worm) mortality test on sprayed maize sprouts; settings: 96 h
Description: Diabrotica balteata (Corn root worm):
Maize sprouts placed onto an agar layer in 24-well microtiter plates were treated with aqueous test solutions prepared from 10′000 ppm DMSO stock solutions by spraying. After drying, the plates were infested with L2 larvae (6 to 10 per well). The samples were assessed for mortality 4 days after infestation.

[2] = tested on: Euschistus heros (Neotropical Brown Stink Bug); test: Euschistus heros (Neotropical Brown Stink Bug): feeding/contact activity; settings: 120 h
Description: Euschistus heros (Neotropical Brown Stink Bug): Feeding/Contact Activity
Soybean leaves on agar in 24-well microtiter plates were sprayed with aqueous test solutions prepared from 10,000 ppm DMSO stock solutions. After drying the leaves were infested with N2 nymphs. The samples were assessed for mortality 5 days after infestation.

[3] = tested on: Myzus persicae (Green Peach Aphid); test: Myzus persicae (Green Peach Aphid): feeding/contact activity; settings: foliar, 144 h
Description: Myzus persicae (Green Peach Aphid): Feeding/Contact Activity
Sunflower leaf discs were placed onto agar in a 24-well microtiter plate and sprayed with aqueous test solutions prepared from 10,000 ppm DMSO stock solutions. After drying, the leaf discs were infested with an aphid population of mixed ages. The samples were assessed for mortality 6 days after infestation.

[4] = tested on: Plutella xylostella (Diamond Back Moth); test: Plutella xylostella (Diamond Back Moth): feeding/contact activity; settings: 120 h
Description: Plutella xylostella (Diamond Back Moth): Feeding/Contact Activity
24-well microtiter plates with artificial diet were treated with aqueous test solutions prepared from 10′000 ppm DMSO stock solutions by pipetting. After drying, the plates were infested with L2 larvae (10 to 15 per well). The samples were assessed for mortality 5 days after infestation.

[5] = tested on: Spodoptera littoralis (Egyptian Cotton Leaf Worm); test: Spodoptera littoralis (Egyptian Cotton Leaf Worm): feeding/contact activity; settings: foliar, 72 h
Description: Spodoptera littoralis (Egyptian Cotton Leaf Worm): Feeding/Contact Activity
Cotton leaf discs were placed onto agar in 24-well microtiter plates and sprayed with aqueous test solutions prepared from 10′000 ppm DMSO stock solutions. After drying the leaf discs were infested with five L1 larvae. The samples were assessed for mortality 3 days after infestation.

[6] = tested on: Tetranychus urticae (Two-Spotted Spider Mite); test: Tetranychus urticae (Two-Spotted Spider Mite): feeding/contact activity; settings: foliar, 192 h, read-out: mortality on mixed population (mobile stages)
Description: Tetranychus urticae (Two-Spotted Spider Mite): Feeding/Contact Activity
Bean leaf discs on agar in 24-well microtiter plates were sprayed with aqueous test solutions prepared from 10′000 ppm DMSO stock solutions. After drying the leaf discs were infested with a mite population of mixed ages. The samples were assessed for mortality on mixed population (mobile stages) 8 days after infestation.

[7] = tested on: Thrips tabaci (Onion Thrips); test: Thrips tabaci (Onion Thrips): feeding/contact activity; settings: foliar, 144 h
Description: Thrips tabaci (Onion Thrips): Feeding/Contact Activity
Sunflower leaf discs were placed on agar in 24-well microtiter plates and sprayed with aqueous test solutions prepared from 10′000 ppm DMSO stock solutions. After drying the leaf discs were infested with a thrips population of mixed ages. The samples were assessed for mortality 6 days after infestation.

[8] = application rate 200 ppm, maize sprouts sprayed, L2 larvae, assessed 4 days after infestation, read-out: mortality
[9] = application rate 200 ppm, soybean leaves sprayed, N2 nymphs, assessed 5 days after infestation, read-out: mortality
[10] = application rate 200 ppm, sunflower leaf discs sprayed, aphid population of mixed ages, assessed 6 days after infestation, read-out: mortality
[11] = application rate 200 ppm, artificial diet treated by pipetting, L2 larvae, assessed 5 days after infestation, read-out: mortality
[12] = application rate 200 ppm, cotton leaf discs sprayed, L1 larvae, assessed 3 days after infestation, read-out: mortality
[13] = application rate 200 ppm, bean leaf discs sprayed, mite population of mixed ages, assessed 8 days after infestation
[14] = application rate 200 ppm, sunflower leaf discs sprayed, thrips population of mixed ages, assessed 6 days after infestation, read-out: mortality

Measured: mortality at 200 ppm

CCOC(=O)N(C(=O)c1cc(-c2cnn(-c3c(OC(F)F)c(C(F)(F)C(F)(F)F)nn3C)c2)cnc1Cl)C1(C#N)CC1 [Compound 16, ethyl N-[2-chloro-5-[1-[4-(difluoromethoxy)-2-methyl-5-(1,1,2,2,2-pentafluoroethyl)pyrazol-3-yl]pyrazol-4-yl]pyridine-3-carbonyl]-N-(1-cyanocyclopropyl)carbamate]
≥ 80%: [1] | [2]; in Glycine max | [3] | [4] | [5] | [6] | [7]

COC(=O)N(C(=O)c1cc(-c2cnn(-c3c(OC(F)F)c(C(F)(F)C(F)(F)F)nn3C)c2)cnc1Cl)C1(C#N)CC1 [Compound 17, methyl N-[2-chloro-5-[1-[4-(difluoromethoxy)-2-methyl-5-(1,1,2,2,2-pentafluoroethyl)pyrazol-3-yl]pyrazol-4-yl]pyridine-3-carbonyl]-N-(1-cyanocyclopropyl)carbamate]
≥ 80%: [1] | [2]; in Glycine max | [3] | [4] | [5] | [6] | [7]

COCN(C(=O)c1cc(-c2cnn(-c3c(OC(F)F)c(C(F)(F)C(F)(F)F)nn3C)c2)cnc1Cl)C1(C#N)CC1 [Compound 18, 2-chloro-N-(1-cyanocyclopropyl)-5-[1-[4-(difluoromethoxy)-2-methyl-5-(1,1,2,2,2-pentafluoroethyl)pyrazol-3-yl]pyrazol-4-yl]-N-(methoxymethyl)pyridine-3-carboxamide]
≥ 80%: [1]; [8] | [2]; [9] | [3]; [10] | [4]; [11] | [5]; [12] | [6]; [13] | [7]; [14]

Cn1nc(C(F)(F)C(F)(F)F)c(OC(F)F)c1-n1cc(-c2cnc(Cl)c(C(=O)N(C(=O)C3CC3)C3(C#N)CC3)c2)cn1 [Compound 19, 2-chloro-N-(1-cyanocyclopropyl)-N-(cyclopropanecarbonyl)-5-[1-[4-(difluoromethoxy)-2-methyl-5-(1,1,2,2,2-pentafluoroethyl)pyrazol-3-yl]pyrazol-4-yl]pyridine-3-carboxamide]
≥ 80%: [1]; [8] | [2]; [9] | [3]; [10] | [4]; [11] | [5]; [12] | [6]; [13] | [7]; [14]

CCC(=O)N(C(=O)c1cc(-c2cnn(-c3c(OC(F)F)c(C(F)(F)C(F)(F)F)nn3C)c2)cnc1Cl)C1(C#N)CC1 [Compound 20, 2-chloro-N-(1-cyanocyclopropyl)-5-[1-[4-(difluoromethoxy)-2-methyl-5-(1,1,2,2,2-pentafluoroethyl)pyrazol-3-yl]pyrazol-4-yl]-N-propanoyl-pyridine-3-carboxamide]
≥ 80%: [1]; [8] | [2]; [9] | [3]; [10] | [4]; [11] | [5]; [12] | [6]; [13] | [7]; [14]

C#CCN(C(=O)c1cc(-c2cnn(-c3c(OC(F)F)c(C(F)(F)C(F)(F)F)nn3C)c2)cnc1Cl)C1(C#N)CC1 [Compound 21, 2-chloro-N-(1-cyanocyclopropyl)-5-[1-[4-(difluoromethoxy)-2-methyl-5-(1,1,2,2,2-pentafluoroethyl)pyrazol-3-yl]pyrazol-4-yl]-N-prop-2-ynyl-pyridine-3-carboxamide]
≥ 80%: [1]; [8] | [2]; [9] | [3]; [10] | [4]; [11] | [5]; [12] | [6]; [13] | [7]; [14]

CC(=O)N(C(=O)c1cc(-c2cnn(-c3c(OC(F)F)c(C(F)(F)C(F)(F)F)nn3C)c2)cnc1Cl)C1(C#N)CC1 [Compound 22, N-acetyl-2-chloro-N-(1-cyanocyclopropyl)-5-[1-[4-(difluoromethoxy)-2-methyl-5-(1,1,2,2,2-pentafluoroethyl)pyrazol-3-yl]pyrazol-4-yl]pyridine-3-carboxamide]
≥ 80%: [1]; [8] | [2]; [9] | [3]; [10] | [4]; [11] | [5]; [12] | [6]; [13] | [7]; [14]
